Holding throughout (assay type): cell-based
One assay deals with T1, MCHR1 I366(7.39)A (Homo sapiens, UniProt Q99705, I297A).
T1 construct: expressed in transfected cells; host or cells: HEK293
Kind of assay: GloSensor cAMP assay, MCHR1 I366A. The settings on record: HEK293, mean ± S.E.M., n = 3 in triplicate. From the text:
(§1) The gene sequences encoding human MCHR1 (residues 70‒405) and MCHR2 (residues 1‒331, with L256^6.40Y mutation) were subcloned into pFastBac vector (Invitrogen) with an N-terminal haemagglutinin signal peptide (HA) and a thermostabilized BRIL fusion, followed by a C-terminal 15-amino acid linker, a LgBiT subunit and two MBPs to facilitate receptor expression and stability. The Gαi construct was designed with dominant-negative mutations S47N, G203A, A326S, and E245A to decrease the affinity of nucleotide-binding and stable Gαβγ complex. The mini-Gαq construct was designed with the C-terminal α-helix (αH5) of Gαq, which is critical for G protein coupling selectivity. The core of the construct, known as the Ras domain, is derived from Gαs. This design choice was made to enable the binding of the nanobody Nb35, which stabilizes the complex for cryo-EM analysis. […] Rat Gβ1 was constructed with a N-terminal 16× His-tag for purification and a C-terminal HiBiT to form a NanoBiT with LgBiT. […] The wild-type and mutants of MCHR1 and MCHR2 were constructed into the pcDNA6.0 vector […] for functional assays.
(§2) GloSensor cAMP assay was used to detect the downstream Gαi signal of MCHR1 using GloSensor cAMP Reagent (Promega).
A general note: Changes in cAMP serve as a functional read-out for many G protein-coupled receptors.

For a further assay, the target named is T2, MCHR2 V181(ECL2)A (Homo sapiens, UniProt Q969V1, V181A).
T2 construct: expressed in transfected cells; host or cells: AD293
Kind of assay: IP-One IP1 accumulation assay, MCHR2 V181A. The settings on record: n = 3 in triplicate. The text has this: (§3) The gene sequences encoding human MCHR1 (residues 70‒405) and MCHR2 (residues 1‒331, with L256^6.40Y mutation) were subcloned into pFastBac vector (Invitrogen) with an N-terminal haemagglutinin signal peptide (HA) and a thermostabilized BRIL fusion, followed by a C-terminal 15-amino acid linker, a LgBiT subunit and two MBPs to facilitate receptor expression and stability. The Gαi construct was designed with dominant-negative mutations S47N, G203A, A326S, and E245A to decrease the affinity of nucleotide-binding and stable Gαβγ complex. The mini-Gαq construct was designed with the C-terminal α-helix (αH5) of Gαq, which is critical for G protein coupling selectivity. The core of the construct, known as the Ras domain, is derived from Gαs. This design choice was made to enable the binding of the nanobody Nb35, which stabilizes the complex for cryo-EM analysis. […]
(§4) IP1 accumulation assay was applied for the detection of the downstream Gαq signal of MCHR2 using the IP-One HTRF kit (Cisbio). […] Before measurement, the samples were incubated at RT for 30 min and measured with EnVision multi-plate reader (PerkinElmer).
(§5) Concentration–response curves were evaluated with a three-parameter logistic equation. The significance was determined with one-way ANOVA with Tukey’s test, and P < 0.05 vs wild type was considered statistically significant.

The target of another assay is T3, MCHR2 P280(ECL3)A (Homo sapiens, UniProt Q969V1, P280A).
T3 construct: expressed in transfected cells; host or cells: AD293
Kind of assay: IP-One IP1 accumulation assay, MCHR2 P280A. The settings on record: n = 3 in triplicate.
Source text: as §3, §4, §5

The target of another assay is T4, MCHR1 L172(2.64)A (Homo sapiens, UniProt Q99705, L103A).
T4 construct: expressed in transfected cells; host or cells: HEK293
Kind of assay: GloSensor cAMP assay, MCHR1 L172A. The settings on record: HEK293, mean ± S.E.M., n = 3 in triplicate.
Source text: as §1, §2

The next assay addresses T5, MCHR2 D113(3.32)A (Homo sapiens, UniProt Q969V1, D113A).
T5 construct: expressed in transfected cells; host or cells: AD293
Kind of assay: IP-One IP1 accumulation assay, MCHR2 D113A. The settings on record: n = 3 in triplicate.
Source text: as §3, §4, §5

For the next assay, the target named is T6, MCHR1 F256(ECL2)A (Homo sapiens, UniProt Q99705, F187A).
T6 construct: expressed in transfected cells; host or cells: HEK293
Kind of assay: GloSensor cAMP assay, MCHR1 F256A. The settings on record: HEK293, mean ± S.E.M., n = 3 in triplicate.
Source text: as §1, §2

In another assay the target is T7, MCHR2 S183(ECL2)A (Homo sapiens, UniProt Q969V1, S183A).
T7 construct: expressed in transfected cells; host or cells: AD293
Put plainly: IP-One IP1 accumulation assay, MCHR2 S183A. The settings on record: AD293, mean ± S.E.M., n = 3 in triplicate.
Source text: as §3, §4, §5

A further assay addresses T8, MCHR1 F161(2.53)A (Homo sapiens, UniProt Q99705, F92A).
T8 construct: expressed in transfected cells; host or cells: HEK293
Put plainly: GloSensor cAMP assay, MCHR1 F161A. The settings on record: HEK293, mean ± S.E.M., n = 3 in triplicate.
Source text: as §1, §2

For a further assay, the target named is T9, MCHR2 F177(ECL2)A (Homo sapiens, UniProt Q969V1, F177A).
T9 construct: expressed in transfected cells; host or cells: AD293
Put plainly: IP-One IP1 accumulation assay, MCHR2 F177A. The settings on record: n = 3 in triplicate.
Source text: as §3, §4, §5

For a further assay, the target named is T10, MCHR2 A185(45.51)F (Homo sapiens, UniProt Q969V1, A185F).
T10 construct: expressed in transfected cells; host or cells: AD293
Kind of assay: IP-One IP1 accumulation assay, MCHR2 A185F. The settings on record: n = 3 in triplicate.
Source text: as §3, §4, §5

The target of another assay is T11, MCHR1 I254(ECL2)A (Homo sapiens, UniProt Q99705, I185A).
T11 construct: expressed in transfected cells; host or cells: HEK293
Kind of assay: GloSensor cAMP assay, MCHR1 I254A. The settings on record: HEK293, mean ± S.E.M., n = 3 in triplicate.
Source text: as §1, §2

For a further assay, the target named is T12, MCHR2 L89(2.60)A (Homo sapiens, UniProt Q969V1, L89A).
T12 construct: expressed in transfected cells; host or cells: AD293
Kind of assay: IP-One IP1 accumulation assay, MCHR2 L89A. The settings on record: n = 3 in triplicate.
Source text: as §3, §4, §5

For another assay, the target named is T13, MCHR2 L188(ECL2)A (Homo sapiens, UniProt Q969V1, L188A).
T13 construct: expressed in transfected cells; host or cells: AD293
Put plainly: IP-One IP1 accumulation assay, MCHR2 L188A. The settings on record: AD293, mean ± S.E.M., n = 3 in triplicate.
Source text: as §3, §4, §5

The target in a further assay is T14, MCHR2 Y285(7.32)A (Homo sapiens, UniProt Q969V1, Y285A).
T14 construct: expressed in transfected cells; host or cells: AD293
Kind of assay: IP-One IP1 accumulation assay, MCHR2 Y285A. The settings on record: AD293, mean ± S.E.M., n = 3 in triplicate.
Source text: as §3, §4, §5

The mark [1] stands for this setting: AD293, IP-One HTRF, 37 °C 1 h, mean ± S.E.M., P < 0.0001 vs WT.

T12 sequence (Q969V1 whole entry L89A): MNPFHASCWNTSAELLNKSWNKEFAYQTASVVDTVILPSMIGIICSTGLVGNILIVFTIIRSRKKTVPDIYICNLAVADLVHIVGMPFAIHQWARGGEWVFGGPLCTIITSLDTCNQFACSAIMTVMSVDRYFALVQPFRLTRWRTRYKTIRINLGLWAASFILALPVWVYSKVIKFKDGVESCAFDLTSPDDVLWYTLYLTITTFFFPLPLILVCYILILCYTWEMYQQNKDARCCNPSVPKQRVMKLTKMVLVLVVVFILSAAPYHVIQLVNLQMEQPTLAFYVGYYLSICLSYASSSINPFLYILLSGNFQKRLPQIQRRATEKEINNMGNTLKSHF
T2 sequence (Q969V1 whole entry V181A): as the sequence (Q969V1 whole entry L89A) above, with A89L, V181A counted along it
T5 sequence (Q969V1 whole entry D113A): as the sequence (Q969V1 whole entry L89A) above, with A89L, D113A counted along it
T10 sequence (Q969V1 whole entry A185F): as the sequence (Q969V1 whole entry L89A) above, with A89L, A185F counted along it
T9 sequence (Q969V1 whole entry F177A): as the sequence (Q969V1 whole entry L89A) above, with A89L, F177A counted along it
T3 sequence (Q969V1 whole entry P280A): as the sequence (Q969V1 whole entry L89A) above, with A89L, P280A counted along it
T14 sequence (Q969V1 whole entry Y285A): as the sequence (Q969V1 whole entry L89A) above, with A89L, Y285A counted along it
T1 sequence (Q99705 whole entry I297A): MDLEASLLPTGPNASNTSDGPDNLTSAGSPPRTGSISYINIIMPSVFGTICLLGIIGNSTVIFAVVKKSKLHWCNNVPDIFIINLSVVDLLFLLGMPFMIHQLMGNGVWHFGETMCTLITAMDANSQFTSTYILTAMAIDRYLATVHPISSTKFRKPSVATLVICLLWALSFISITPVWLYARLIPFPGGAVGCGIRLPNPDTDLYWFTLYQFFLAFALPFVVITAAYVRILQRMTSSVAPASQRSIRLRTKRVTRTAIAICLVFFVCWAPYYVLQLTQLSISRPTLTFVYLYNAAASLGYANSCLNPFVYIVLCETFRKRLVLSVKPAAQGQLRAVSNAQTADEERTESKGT
T7 sequence (Q969V1 whole entry S183A): as the sequence (Q969V1 whole entry L89A) above, with A89L, S183A counted along it
T8 sequence (Q99705 whole entry F92A): as the sequence (Q99705 whole entry I297A) above, with F92A, A297I counted along it
T11 sequence (Q99705 whole entry I185A): as the sequence (Q99705 whole entry I297A) above, with I185A, A297I counted along it
T6 sequence (Q99705 whole entry F187A): as the sequence (Q99705 whole entry I297A) above, with F187A, A297I counted along it
T13 sequence (Q969V1 whole entry L188A): as the sequence (Q969V1 whole entry L89A) above, with A89L, L188A counted along it
T4 sequence (Q99705 whole entry L103A): as the sequence (Q99705 whole entry I297A) above, with L103A, A297I counted along it

Turning to `CSCC[C@@H]1NC(=O)[C@@H](NC(=O)[C@H](CCCNC(=N)N)NC(=O)[C@H](CC(C)C)NC(=O)[C@H](CCSC)NC(=O)[C@H](CC(=O)O)NC(=O)[C@H](Cc2ccccc2)NC(=O)[C@@H](N)CC(=O)O)CSSC[C@@H](C(=O)N[C@@H](Cc2c[nH]c3ccccc23)C(=O)N[C@@H](CCC(N)=O)C(=O)N[C@H](C(=O)O)C(C)C)NC(=O)[C@@H]2CCCN2C(=O)[C@H](CCCNC(=N)N)NC(=O)[C@H](Cc2ccc(O)cc2)NC(=O)[C@H](C(C)C)NC(=O)[C@H](CCCNC(=N)N)NC(=O)CNC(=O)[C@H](CC(C)C)NC1=O` [MCH, Melanin-concentrating hormone], the Emax (as a rule, the size of the effect at its maximum, as opposed to the concentration needed) at MCHR1 I366(7.39)A worked out at 90 ± 5%; on MCHR2 V181(ECL2)A (AD293, mean ± S.E.M.), 96 ± 1%; on MCHR2 P280(ECL3)A (AD293, mean ± S.E.M.) it was 90 ± 2%; on MCHR1 L172(2.64)A it was 107 ± 3%; on MCHR2 D113(3.32)A (AD293, mean ± S.E.M.), 101 ± 2%; at MCHR1 F256(ECL2)A, 106 ± 2%. Moreover, the Emax on MCHR2 S183(ECL2)A stood at 95 ± 1%; at MCHR1 F161(2.53)A, 124 ± 1%; at MCHR2 F177(ECL2)A (AD293, mean ± S.E.M.), 97 ± 2%; on MCHR2 A185(45.51)F (AD293, mean ± S.E.M.), 96 ± 1%; at MCHR1 I254(ECL2)A, 98 ± 3%; on MCHR2 L89(2.60)A (AD293, mean ± S.E.M.), 104 ± 2%. Further, the results for the Emax on MCHR2 L188(ECL2)A and at MCHR2 Y285(7.32)A were 101 ± 1% and 92 ± 2%, respectively. For the same molecule, the EC50 (usually the concentration needed to bring the measured effect to its halfway point) at MCHR2 V181(ECL2)A (setting [1]) was 53.7 nM; on MCHR2 P280(ECL3)A (setting [1]), 182 nM; at MCHR2 D113(3.32)A (setting [1]) it was 2040 nM; at MCHR2 F177(ECL2)A (setting [1]) it was 3980 nM; at MCHR2 A185(45.51)F (setting [1]) it was 12600 nM; at MCHR2 L89(2.60)A (AD293, IP-One HTRF, 37 °C 1 h, mean ± S.E.M., P 0.1322 vs WT) it was 9.12 nM.

Values taken from PMC11074101 (Cell Discovery, 2024).
